Measured values: patent publication US20230203060A1 (GENFLEET THERAPEUTICS (SHANGHAI) INC., priority 2020, published 2023)

Legend:
KRAS G12C = biological target: T1, KRAS G12C (Homo sapiens, UniProt P01116, G12C); assay: KRAS G12C NEA-HTRF experiment (SOS1-catalyzed displacement of GDP by GTP); type: biochemical
T1 construct: purchased Reactionbiology
Text: Raw materials and instruments: KRAS G12C (his-tag) purchased from Reactionbiology; batch number 3496; SOS1 purchased from Reactionbiology; batch number: 3501; GTP purchased from Sigma; article number: G8877; batch number: SLBV1450; Tris-HC1 purchased from Sigma; EDTA purchased from absin; article number: abs42017668; batch number: JE20; NaCl purchased from Sigma; article number: 55886; batch number: SLBW4193; MgCl2 purchased from Shyuanye; article number: R21455; batch number: L07S9G69806; HEPES purchased from Life Technologies; article number: 15630-080; batch number: 2037042; DTT purchased from Thermo Fisher; article number: R0862; batch number: 00608918; Triton X-100 purchased from Sigma; article number: T8787-100 ML; batch number: SLBW7103; DY647-labeled GDP purchased from Jena Bioscience; article number: NU-840-647P1; batch number: BM019-045; Anti-6H1S-Tb purchased from Cisbio; article number: 61H12TLA; batch number: 13A; Bradford Assay Kit purchased from Thermo Fisher; article number: 23246; batch number: UG287474; white opaque 96-well plate purchased from Cisbio; article number: 66PL96025; batch number: N°06; NAP-5 column purchased from GE Healthcare; article number: 17085301; batch number: 16995164; mircoplate reader purchased from PerkinElmer; model: Envision MLD2105-0020; equipment number 1050369. The effect of compounds on SOS1-catalyzed displacement of GDP by GTP on KRAS protein was examined using a homogeneous time-resolved fluorescence (HTRF) method. 30 μM 6×his-tagged KRAS G12C recombinant protein was incubated with 80 μM fluorescent dye DY647-labeled GDP in labeling buffer (1 mM DTT, 7.5 mM EDTA, 25 mM Tris-HCl, 45 mM NaCl) at 20° C. in the dark for 2 hours, purified using NAP-5 column, and then protein quantification was performed with Bradford Assay Kit after purification to determine the concentration of KRAS […] 3.16-fold gradient concentration stock solution of 1000× compound was prepared with DMSO, and diluted 250-fold to 4× compound stock solution with reaction buffer (40 mM HEPES, 10 mM MgCl2, 1 mM DTT, 0.002% Triton X-100). KRAS G12C-GDP/Tb working solution (40 nM KRAS […] Tb) and SOS1/GTP working solution (0.2 μM SOS1, 200 μM GTP) were prepared using the reaction buffer. A white opaque 96-well plate was taken, and 5 μL of 4× compound stock solution and 10 μL of KRAS G12C-GDP/Tb working solution were added to each well. 5 μL of reaction buffer instead of 4x compound stock solution was used in the control well. After incubation in the dark for 15 minutes at 20° C., 5μL of SOS1/GTP working solution was added thereto, and the fluorescence value (excitation wavelength: 320 nm, emission wavelength: 615 nm and 665 nm) was read after incubating at 20° C. in the dark for 2 hours. Another T0 group was set up with 10 μL reaction buffer+10 μL KRAS G12C-GDP/Tb working solution, and the fluorescence value was read directly by the microplate reader. The fluorescence signal ratio RLU=(665 nm signal/615 nm signal)×10^4; and the compound inhibition rate IR (%)=(RLUcompound-RLUcontrol)/(RLUT0-RLUcontrol)×100% were calculated. The IC50 value was calculated by fitting the gradient dilution concentration of compound and the corresponding inhibition rate with the four-parameter method. The NEA activity of the compounds prepared in the above embodiments of the present disclosure was 0.0001 μM to 1 μM; the inhibitory activity of some compounds on KRAS G12C mutant MIA PaCa-2 cells was 0.001 μM to 0.5 μM or 0.001 μM to 0.1 μM.

[1] = system: KRAS G12C mutant NCI-H358 cells; assay: Cell proliferation inhibition experiment, 3D spheroid, CellTiter-Glo, NCI-H358; type: cell-based, human; conditions: Homo sapiens, NCI-H358, 120 h, NCI-H358 (KRAS G12C mutant) 3D spheroid, 5 days with compound, CellTiter-Glo; read-out: H358 IC50
How it was run: (§1)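 CellTiter-Glo luminescence after 5 days' compound treatment (3.16-fold series, 0.1% DMSO) of overnight-formed spheroids in 2% FBS medium: H358 seeded at 800 cells/well in RPMI-1640, A549 at 400 cells/well in F-12K. IC50 derived by four-parameter fit of inhibition normalized to DMSO control and blank.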

[2] = system: A549 cells (KRAS G12S mutant); assay: Cell proliferation inhibition experiment, 3D spheroid, CellTiter-Glo, A549; type: cell-based, human; conditions: Homo sapiens, A549, 120 h, A549 (KRAS G12S mutant) 3D spheroid, 5 days with compound, CellTiter-Glo; read-out: A549 IC50
How it was run: as §1

[3] = system: KRAS G12C mutant MIA PaCa-2 cells; assay: Cell proliferation inhibition experiment, 3D spheroid, CellTiter-Glo, MIA PaCa-2; type: cell-based, human; conditions: Homo sapiens, MIA PaCa-2, 120 h, 3D cell model in 384-well spheroid plate, 5 days, CellTiter-Glo; read-out: MIA-PaCa2 IC50
How it was run: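 Luminescent ATP read-out (CellTiter-Glo) after 5-day compound treatment of spheroids formed overnight from 200 MIA PaCa-2 cells/well; compounds in 3.16-fold series, 0.1% DMSO final. IC50 derived by four-parameter fit of percent inhibition, normalized to DMSO control and medium blank.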

T1 sequence (P01116 1-188 isoform P01116-2 G12C): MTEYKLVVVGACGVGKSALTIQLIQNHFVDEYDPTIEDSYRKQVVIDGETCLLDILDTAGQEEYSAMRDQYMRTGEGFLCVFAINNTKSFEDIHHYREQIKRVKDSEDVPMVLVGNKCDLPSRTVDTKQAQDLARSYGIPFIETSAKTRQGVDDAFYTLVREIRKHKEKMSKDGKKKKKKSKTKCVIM

IC50 (KRAS G12C) [µM] | IC50 [1] [µM] | IC50 [2] [µM] | IC50 [3] [µM] | SMILES
> 10 | – | – | – | C=CC(=O)N1CCN2C(=O)c3c(N4CCN(C)[C@H](C)[C@@H]4C)nc(-c4ccccc4F)c(Cl)c3OC[C@H]2C1 (single isomer, unassigned) [Z465-2]
0.194 | 0.0513 | – | – | C=CC(=O)N1CCN2C(=O)c3c(N4C[C@@H](O)[C@@H]4C)nc(-c4c(O)cccc4F)c(Cl)c3OC[C@H]2C1 (single isomer, unassigned) [Z102-1]
> 10 | – | – | – | C=CC(=O)N1CCN2Cc3c(C(=O)N(C)C(C)C)nc(-c4ccccc4F)c(Cl)c3OC[C@H]2C1 [Z656, (R)-8-acryloyl-4-chloro-3-(2-fluorophenyl)-N-isopropyl-N-methyl-6a,7,8,9,10,12-hexahydro-6H-pyrazino[2,1-c]pyrido[3,4-f][1,4]oxazepine-1-carboxamide]
0.321 | 0.155 | – | – | C=CC(=O)N1CCN2C(=O)c3c(N4CC(N5CC(F)C5)CC4(C)C)nc(-c4ccccc4F)c(Cl)c3OC[C@H]2C1 (single isomer, unassigned) [Z480-2]
0.033 | – | – | – | C=CC(=O)N1CCN2C(=O)c3c(N4Cc5nncn5CC4C)nc(-c4c(O)cccc4F)c(Cl)c3OC[C@H]2C1 (stereo partly drawn) [Z277-1, (6aR)-8-acryloyl-4-chloro-3-(2-fluoro-6-hydroxyphenyl)-1-(6-methyl-5,6-dihydro-[1,2,4]triazolo [4,3-a]pyrazin-7(8H)-yl)-6,6a,7,8,9,10-hexahydro-12H-pyrazino[2,1-c]pyrido[3,4-f][1,4]oxazepin-12-one]
0.389 | – | – | – | C=CC(=O)N1CCN2C(=O)c3c(N4C[C@H](O)CC4(C)C)nc(-c4c(F)ccc(F)c4O)c(F)c3OC[C@H]2C1 (single isomer, unassigned) [Z449-2]
– | 0.047 | > 20 | 0.042 | C=CC(=O)N1CCN2C(=O)c3c(N4CCC5CN(C)CC54)nc(-c4c(O)cccc4F)c(Cl)c3OC[C@H]2C1 (stereo partly drawn) [Z47, (6aR)-8-acryloyl-4-chloro-3-(2-fluoro-6-hydroxyphenyl)-1-(5-methylhexahydropyrrolo[3,4-b]pyrrol-1(2H)-yl)-6,6a,7,8,9,10-hexahydro-12H-pyrazino[2,1-c]pyrido[3,4-f][1,4]oxazepin-12-one]
– | 0.035 | > 30 | 0.063 | C=CC(=O)N1CCN2Cc3c(Nc4c(C)ccnc4C(C)C)nc(-c4c(O)cccc4F)c(Cl)c3OC[C@H]2C1 [Z19, 1-((6aR)-4-chloro-3-(2-fluoro-6-hydroxyphenyl)-1-((2-isopropyl-4-methylpyridin-3-yl)amino)-6a,7,9,10-tetrahydro-12H-pyrazino[2,1-c]pyrido[3,4-f][1,4]oxazepin-8(6H)-yl)prop-2-en-1-one]
– | 0.033 | > 5 | 0.041 | C=CC(=O)N1CCN2C(=O)c3c(N4CCOC[C@H]4C)nc(-c4c(O)cccc4F)c(Cl)c3OC[C@H]2C1 [Z27, (6aR)-8-acryloyl-4-chloro-3-(2-fluoro-6-hydroxyphenyl)-1-((R)-3-methylmorpholino)-6,6a,7,8,9,10-hexahydro-12H-pyrazino[2,1-c]pyrido[3,4-f][1,4]oxazepin-12-one]
– | 0.023 | 11.3 | 0.095 | C=CC(=O)N1CCN2C(=O)c3c(Nc4c(C)ccnc4C(C)C)nc(-c4c(O)cccc4F)c(F)c3OC[C@H]2C1 [Z9, (6aR)-8-acryloyl-4-fluoro-3-(2-fluoro-6-hydroxyphenyl)-1-((2-isopropyl-4-methylpyridin-3-yl)amino)-6,6a,7,8,9,10-hexahydro-12H-pyrazino[2,1-c]pyrido[3,4-f][1,4]oxazepin-12-one]
– | 0.275 | > 10 | 0.467 | C=CC(=O)N1CCN2Cc3c(NC(C)(C)C)nc(-c4c(O)cccc4F)c(Cl)c3OC[C@H]2C1 [Z71, 1-((6aR)-1-(tert-butylamino)-4-chloro-3-(2-fluoro-6-hydroxyphenyl)-6a,7,9,10-tetrahydro-12H-pyrazino[2,1-c]pyrido[3,4-f][1,4]oxazepin-8(6H)-yl)prop-2-en-1-one]
– | 0.042 | 9.34 | 0.064 | C=CC(=O)N1CCN2C(=O)c3c(N4CCCC4)nc(-c4c(O)cccc4F)c(Cl)c3OC[C@H]2C1 [Z11, (6aR)-8-acryloyl-4-chloro-3-(2-fluoro-6-hydroxyphenyl)-1-(pyrrolidin-1-yl)-6,6a,7,8,9,10-hexahydro-12H-pyrazino[2,1-c]pyrido[3,4-f][1,4]oxazepin-12-one]
– | 0.026 | > 5 | 0.051 | C=CC(=O)N1CCN2C(=O)c3c(N4CCC5(CC5)C4)nc(-c4c(O)cccc4F)c(Cl)c3OC[C@H]2C1 [Z44, (6aR)-8-acryloyl-4-chloro-3-(2-fluoro-6-hydroxyphenyl)-1-(5-azaspiro[2.4]heptan-5-yl)-6,6a,7,8,9,10-hexahydro-12H-pyrazino[2,1-c]pyrido[3,4-f][1,4]oxazepin-12-one]
0.226 | – | – | – | C=CC(=O)N1CCN2C(=O)c3c(N4CC5CCC(=O)N5C[C@@H]4C)nc(-c4c(O)cccc4F)c(Cl)c3OC[C@H]2C1 (stereo partly drawn) [Z330-1, (6aR)-8-acryloyl-4-chloro-3-(2-fluoro-6-hydroxyphenyl)-1-((3S)-3-methyl-6-oxohexahydropyrrolo[1,2-c]pyrazin-2 (1H)-yl)-6,6a,7,8,9,10-hexahydro-12H-pyrazino[2,1-c]pyrido[3,4-f][1,4]oxazepin-12-one]
– | 0.036 | > 5 | 0.039 | C=CC(=O)N1CCN2C(=O)c3c(N4CCOC[C@@H]4CC)nc(-c4c(O)cccc4F)c(Cl)c3OC[C@H]2C1 [Z52, (6aR)-8-acryloyl-4-chloro-1-((S)-3-ethylmorpholino)-3-(2-fluoro-6-hydroxyphenyl)-6,6a,7,8,9,10-hexahydro-12H-pyrazino[2,1-c]pyrido[3,4-f][1,4]oxazepin-12-one]
– | 0.085 | 9.48 | 0.098 | C=CC(=O)N1CCN2C(=O)c3c(N4CCSCC4)nc(-c4c(O)cccc4F)c(Cl)c3OC[C@H]2C1 [Z264, (6aR)-8-acryloyl-4-chloro-3-(2-fluoro-6-hydroxyphenyl)-1-thiomorpholino-6,6a,7,8,9,10-hexahydro-12H-pyrazino[2,1-c]pyrido[3,4-f][1,4]oxazepin-12-one]

SMILES | IC50 (KRAS G12C) [µM] | IC50 [1] [µM] | IC50 [2] [µM] | IC50 [3] [µM]
C=CC(=O)N1CCN2C(=O)c3c(N4[C@@H]5CC[C@H]4COC5)nc(-c4c(O)cccc4F)c(Cl)c3OC[C@H]2C1 [Z38, (6aR)-8-acryloyl-1-((1R,5S)-3-oxa-8-azabicyclo[3.2.1]octan-8-yl)-4-chloro-3-(2-fluoro-6-hydroxyphenyl)-6,6a,7,8,9,10-hexahydro-12H-pyrazino[2,1-c]pyrido[3,4-f][1,4]oxazepin-12-one] | – | 0.055 | > 10 | 0.088
